Here are results for seven molecules from US11795511B2, “Methods and compositions for the prognosis and treatment of relapsed leukemia” (NEW YORK UNIVERSITY, priority 2012, dated 2023).

For assay [1], the system named is Reh cells. The assay can be described thus: Apoptosis assay (Annexin V-PE / 7-AAD, flow cytometry) of Reh cells transduced with wild-type or mutant cN-II after drug treatment. Type of assay: cell-based. The following applies: Reh cells transduced with lentiviruses encoding wild-type or mutant (Arg238Trp, Arg367Gln or Ser445Phe) cN-II; incubation 24-72 h. As to the method: Cell Culture and Drug Treatment. Reh cells obtained from the American Type Culture Collection (ATCC) were grown in RPMI1640 supplemented with 10% FBS, 10 mM HEPES and 1% penicillin-streptomycin under 5% CO2 at 37° C. 293T cells (ATCC) were grown in DMEM supplemented with 10% FBS and 1% penicillin-streptomycin under 5% CO2 at 37° C. 6-mercaptopurine, 6-thioguanine, cytarabine, doxorubicin, gemcitabine and prednisolone (Sigma) were serially diluted in RPMI before use at the indicated concentrations.
Transient Transfection and Lentivirus Gene Transfer. NT5C2 DNA for wild-type and mutant (Arg238Trp, Arg367Gln and Ser445Phe) was cloned into the lentiviral vector pLenti using SalI and XbaI restriction sites. All plasmids were sequence verified. cDNA constructs were transfected into 293T cells along with helper plasmids using the calcium phosphate method to produce replication-defective virus. Supernatant was harvested 48 h later and used to transduce Reh cells (whose NT5C2 sequence was verified as wild type) supplemented with […] polybrene (Sigma). Virus-containing medium was replaced 24 h after infection. Cells were monitored 72 h after infection for infection efficiency by the detection of GFP-positive cells using a FACScan (BD). Infected cells were plated (200,000 cells per well in […] of medium) in triplicate for drug treatment with 6-mercaptopurine, 6-thioguanine, cytarabine, doxorubicin, gemcitabine and prednisolone (Sigma). Cells were incubated for 24-72 h and then assayed for apoptosis by Annexin V-PE and 7-AAD staining (Annexin V-PE Apoptosis Detection kit, BD Pharmingen) followed by flow cytometry analysis using a FACScan. The percentages of cells positive and negative for Annexin V and/or 7-AAD staining were analyzed with FlowJo software (version 7.6.1, Tree Star). Data were plotted relative to results obtained with no chemotherapy treatment, and error bars represent the standard deviation from three independent determinations. Cells (1×10^6) were harvested for protein at the time of plating. Briefly, cells were pelleted at 200 g for 5 min and resuspended in […] of RIPA buffer with 1× protease inhibitors (GE Healthcare), incubated on ice for 15 min and centrifuged at 15,000 g for 10 min at 4° C. Protein was subjected to electrophoresis on 9% SDS-Tris acrylamide gels and transferred to PVDF membranes. Membranes were incubated with a 1:5,000 dilution of antibody to Flag (F3165, Sigma), incubated with a 1:10,000 dilution of HRP-conjugated secondary antibody to mouse (GE Healthcare) and developed using ECL (GE Healthcare).

Assay [2] relates to Reh cells. The experiment in a line: HPLC determination of thioguanine nucleotides in Reh cells after 6-mercaptopurine treatment. The assay is classed as cell-based. The following applies: 6-mercaptopurine treatment for 24 h. As to the method: HPLC determination of nucleotides. Reh cells were transiently infected with NT5C2 constructs. After infection, cells were treated with 10 mM 6-mercaptopurine for 24 h in duplicate. After 24 h, 5×10^6 cells were washed twice with PBS, and cell pellets were frozen at −80° C. Intraceullar accumulation of thioguanine nucleotides (6-mercaptopurine active metabolites) was determined by a reversed-phase liquid chromatography assay as described previously (Dervieux et al., “HPLC Determination of Thiopurine Nucleosides and Nucleotides In Vivo in Lymphoblasts Following Mercaptopurine Therapy,” Clin. Chem. 48: 61-68 (2002), which is hereby incorporated by reference in its entirety).

The target in the next assay is cN-II (Homo sapiens, UniProt P49902). The note with it: cited from earlier work.
cN-II, sequence (P49902 whole entry): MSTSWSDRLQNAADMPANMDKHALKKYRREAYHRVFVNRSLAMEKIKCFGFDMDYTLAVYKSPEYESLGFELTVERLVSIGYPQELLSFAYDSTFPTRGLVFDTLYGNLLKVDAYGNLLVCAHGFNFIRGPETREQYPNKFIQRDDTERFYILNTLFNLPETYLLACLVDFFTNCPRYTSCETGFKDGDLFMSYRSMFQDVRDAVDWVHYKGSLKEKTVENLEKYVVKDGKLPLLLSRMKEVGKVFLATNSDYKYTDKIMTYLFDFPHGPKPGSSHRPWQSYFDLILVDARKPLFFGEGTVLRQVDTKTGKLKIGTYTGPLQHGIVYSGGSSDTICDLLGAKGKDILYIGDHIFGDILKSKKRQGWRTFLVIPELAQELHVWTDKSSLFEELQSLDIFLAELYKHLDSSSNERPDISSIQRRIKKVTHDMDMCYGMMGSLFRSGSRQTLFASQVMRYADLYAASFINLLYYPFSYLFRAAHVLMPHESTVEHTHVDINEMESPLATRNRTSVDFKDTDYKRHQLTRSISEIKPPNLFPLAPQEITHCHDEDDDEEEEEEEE

In the case of `Sc1ncnc2nc[nH]c12` [6-mercaptopurine], the “resistance to apoptosis of cells expressing mutant forms of cN-II compared to cells expressing wild-type protein” value with Reh cells [1] was “significantly more resistant to apoptosis”. Further, the “level of thioguanine nucleotides in cells expressing mutant cN-II compared to control cells expressing wild-type protein or GFP” value in the assay with Reh cells [2] was “reduction in the level of thioguanine nucleotides”. As to `Nc1nc2nc[nH]c2c(=S)[nH]1` [6-thioguanine], in the assay on Reh cells [1], the “resistance to apoptosis of cells expressing mutant forms of cN-II compared to cells expressing wild-type protein” value is “significantly more resistant to apoptosis”. For `Nc1ccn([C@@H]2O[C@H](COP(=O)(O)O)[C@@H](O)[C@@H]2O)c(=O)n1` [araC monophosphate], the “hydrolysis by the purified enzyme” value on cN-II is “does not hydrolyze”.

For `Nc1ccn([C@@H]2O[C@H](CO)[C@@H](O)[C@@H]2O)c(=O)n1` [cytarabine], the “resistance to apoptosis of cells expressing mutant forms of cN-II compared to cells expressing wild-type protein” value with Reh cells [1] was “no resistance was seen”. On the same count and under the same terms, the result for `COc1cccc2c1C(=O)c1c(O)c3c(c(O)c1C2=O)C[C@@](O)(C(=O)CO)C[C@@H]3O[C@H]1C[C@H](N)[C@H](O)[C@H](C)O1` [doxorubicin] reads “no resistance was seen”; that for `Nc1ccn([C@@H]2O[C@H](CO)[C@@H](O)C2(F)F)c(=O)n1` [gemcitabine], “no resistance was seen”. Consider `C[C@]12C=CC(=O)C=C1CC[C@@H]1[C@@H]2[C@@H](O)C[C@@]2(C)[C@H]1CC[C@]2(O)C(=O)CO` [prednisolone], for which, in the assay on Reh cells [1], the “resistance to apoptosis of cells expressing mutant forms of cN-II compared to cells expressing wild-type protein” value is reported as “no resistance was seen”.
